Experimental data published in patent publication US6489268B1, “Highly selective herbicidal phenoxypropionic acid alkoxycarbonyl anilid compounds and method of preparing the same” (Dongbu Hannong Chemical Co., Ltd., priority 1999, dated 2002).

Assays:
Test in all cases: Leaf treatment test (post-emergence spray, % damage)
Assay type in all cases: in vivo
Settings in all cases: 14 days after treatment, vs untreated control
[1] = system: Panicum dichotomiflorum Michx (Fall panicum, PANDI)
Procedure: (§1) Seeds of rice, wheat, barley, corn, cotton, barnyard grass, common sorgum, large crabgrass and fall panicum were seeded at a pot with a surface area of 600 cm. When barnyard grass kept at 20˜30° C. had three leaves, wettable powders prepared by mixing 1 weight part of the active compound, 5 weight part of acetone and 1 weight part of emulsifier and diluting with water was applied directly on the leaves in 2000 l per hectare. The concentration of the spray liquid was so chosen the particular amounts of the active compound desired. 14 days after the treatment, the degree of damage to the plants was rated in % damage in comparison to the development of untreated control. 0% no action (like untreated control) 20% slight effect 70% herbicidal effect 100% total destruction [table]

[2] = system: Echinochloa crus-galli Beauv. var. caudata Kitagawa (Barnyard grass, ECHCG)
Procedure: as §1

[3] = system: Gossypium (Cotton, GOSHI)
Procedure: as §1

[4] = system: Zea mays L. (Corn, ZEAMX)
Procedure: as §1

[5] = system: Andropogon sorghum (Common sorgum, SORBI)
Procedure: as §1

[6] = system: Oryza sativa L. cv. Dongjin (Rice, ORYSA)
Procedure: as §1

[7] = system: Digitaria Sanguinalis (L.) SCOP (Large crabgrass, DIGSA)
Procedure: as §1

[8] = system: Glydne max (L.) MERR (Soy bean, GLXMA)
Procedure: [The procedure below names another organism; the source lists this organism under the same test.] as §1

[9] = system: Triticum aestivum L. (Wheat, TRZAW)
Procedure: as §1

## COC(=O)c1ccc(NC(=O)C(C)Oc2ccc(Oc3nc4ccc(Cl)cc4o3)cc2)cc1 (centres unmarked) [Compound 4]
[1]; 0.025 kg/ha
  degree of damage to the plants, PANDI: 80%
[1]; 0.1 kg/ha
  degree of damage to the plants, PANDI: 100%
[2]; 0.025 kg/ha
  degree of damage to the plants, ECHCG: 100%
[2]; 0.1 kg/ha
  degree of damage to the plants, ECHCG: 100%
[3]; 0.025 kg/ha
  degree of damage to the plants, GOSHI: 0%
[3]; 0.1 kg/ha
  degree of damage to the plants, GOSHI: 0%
[4]; 0.025 kg/ha
  degree of damage to the plants, ZEAMX: 0%
[4]; 0.1 kg/ha
  degree of damage to the plants, ZEAMX: 0%
[5]; 0.025 kg/ha
  degree of damage to the plants, SORBI: 70%
[5]; 0.1 kg/ha
  degree of damage to the plants, SORBI: 100%
[6]; 0.025 kg/ha
  degree of damage to the plants, ORYSA: 0%
[6]; 0.1 kg/ha
  degree of damage to the plants, ORYSA: 30%
[7]; 0.025 kg/ha
  degree of damage to the plants, DIGSA: 100%
[7]; 0.1 kg/ha
  degree of damage to the plants, DIGSA: 100%
[8]; 0.025 kg/ha
  degree of damage to the plants, GLXMA: 0%
[8]; 0.1 kg/ha
  degree of damage to the plants, GLXMA: 0%
[9]; 0.025 kg/ha
  degree of damage to the plants, TRZAW: 0%
[9]; 0.1 kg/ha
  degree of damage to the plants, TRZAW: 0%

## CCOC(=O)c1cccc(NC(=O)C(C)Oc2ccc(Oc3nc4ccc(Cl)cc4o3)cc2)c1 (centres unmarked) [Compound 2]
[1]; 0.004 kg/ha
  degree of damage to the plants, PANDI: 95%
[1]; 0.016 kg/ha
  degree of damage to the plants, PANDI: 100%
[1]; 0.063 kg/ha
  degree of damage to the plants, PANDI: 100%
[1]; 1 kg/ha
  degree of damage to the plants, PANDI: 100%
[1]; 025 kg/ha
  degree of damage to the plants, PANDI: 100%
[2]; 0.004 kg/ha
  degree of damage to the plants, ECHCG: 90%
[2]; 0.016 kg/ha
  degree of damage to the plants, ECHCG: 100%
[2]; 0.063 kg/ha
  degree of damage to the plants, ECHCG: 100%
[2]; 1 kg/ha
  degree of damage to the plants, ECHCG: 100%
[2]; 15 g/ha
  degree of damage to the plants, ECHCG: 8%
[2]; 025 kg/ha
  degree of damage to the plants, ECHCG: 100%
[2]; 30 g/ha
  degree of damage to the plants, ECHCG: 100%
[2]; 60 g/ha
  degree of damage to the plants, ECHCG: 100%
[2]; 125 g/ha
  degree of damage to the plants, ECHCG: 100%
[2]; 250 g/ha
  degree of damage to the plants, ECHCG: 100%
[2]; 500 g/ha
  degree of damage to the plants, ECHCG: 100%
[2]; 1000 g/ha
  degree of damage to the plants, ECHCG: 100%
[3]; 0.004 kg/ha
  degree of damage to the plants, GOSHI: 0%
[3]; 0.016 kg/ha
  degree of damage to the plants, GOSHI: 0%
[3]; 0.063 kg/ha
  degree of damage to the plants, GOSHI: 0%
[3]; 1 kg/ha
  degree of damage to the plants, GOSHI: 0%
[3]; 025 kg/ha
  degree of damage to the plants, GOSHI: 0%
[4]; 0.004 kg/ha
  degree of damage to the plants, ZEMAX: 0%
[4]; 0.016 kg/ha
  degree of damage to the plants, ZEMAX: 0%
[4]; 0.063 kg/ha
  degree of damage to the plants, ZEMAX: 20%
[4]; 1 kg/ha
  degree of damage to the plants, ZEMAX: 100%
[4]; 025 kg/ha
  degree of damage to the plants, ZEMAX: 100%
[5]; 0.004 kg/ha
  degree of damage to the plants, SORBI: 40%
[5]; 0.016 kg/ha
  degree of damage to the plants, SORBI: 100%
[5]; 0.063 kg/ha
  degree of damage to the plants, SORBI: 100%
[5]; 1 kg/ha
  degree of damage to the plants, SORBI: 100%
[5]; 025 kg/ha
  degree of damage to the plants, SORBI: 100%
[6]; 0.004 kg/ha
  degree of damage to the plants, ORYSA: 0%
[6]; 0.016 kg/ha
  degree of damage to the plants, ORYSA: 0%
[6]; 0.063 kg/ha
  degree of damage to the plants, ORYSA: 0%
[6]; 1 kg/ha
  degree of damage to the plants, ORYSA: 40%
[6]; 15 g/ha
  degree of damage to the plants, ORYSA: 0%
[6]; 025 kg/ha
  degree of damage to the plants, ORYSA: 40%
[6]; 30 g/ha
  degree of damage to the plants, ORYSA: 0%
[6]; 60 g/ha
  degree of damage to the plants, ORYSA: 0%
[6]; 125 g/ha
  degree of damage to the plants, ORYSA: 0%
[6]; 250 g/ha
  degree of damage to the plants, ORYSA: 15%
[6]; 500 g/ha
  degree of damage to the plants, ORYSA: 35%
[6]; 1000 g/ha
  degree of damage to the plants, ORYSA: 45%
[7]; 0.004 kg/ha
  degree of damage to the plants, DIGSA: 95%
[7]; 0.016 kg/ha
  degree of damage to the plants, DIGSA: 100%
[7]; 0.063 kg/ha
  degree of damage to the plants, DIGSA: 100%
[7]; 1 kg/ha
  degree of damage to the plants, DIGSA: 100%
[7]; 025 kg/ha
  degree of damage to the plants, DIGSA: 100%
[8]; 0.004 kg/ha
  degree of damage to the plants, GLXMA: 0%
[8]; 0.016 kg/ha
  degree of damage to the plants, GLXMA: 0%
[8]; 0.063 kg/ha
  degree of damage to the plants, GLXMA: 0%
[8]; 1 kg/ha
  degree of damage to the plants, GLXMA: 0%
[8]; 025 kg/ha
  degree of damage to the plants, GLXMA: 0%
[9]; 0.004 kg/ha
  degree of damage to the plants, TRZAW: 0%
[9]; 0.016 kg/ha
  degree of damage to the plants, TRZAW: 0%
[9]; 0.063 kg/ha
  degree of damage to the plants, TRZAW: 0%
[9]; 1 kg/ha
  degree of damage to the plants, TRZAW: 40%
[9]; 025 kg/ha
  degree of damage to the plants, TRZAW: 20%
